# Marks after values point to notes of the source that are not given here.
# Test system: not listed separately
# Experiment: PC content of red wine before and after in vitro simulated gastrointestinal digestion (HPLC)
# Format: in vitro ADME
# Conditions: not given
# Experimental: The digestion procedure was carried out by adapting the method of Brodkorb et al. and Gómez et al.. […] One milliliter (50 units/mL) of porcine amylase was prepared in a 15 mM Na₃PO₄ buffer solution (pH adjusted to 6.8) containing 1.5 mM CaCl2, and it was added to the red wine solution. After 5 min, 4.5 mL of 0.12 M HCl was added to the mixture to adjust the pH to 2.4. One milliliter of porcine pepsin (0.02 mg/L) was dissolved in a 20 mM HCl solution. The mixture was then maintained at 37 °C for 120 min. The digestion mixture was then centrifuged at 8000× g for 15 min to obtain samples from the gastric digestion phase. […] The mixture was incubated at pH 6.5 at 37 °C for 3 h before being centrifuged. The extracts of the intestinal phase were the supernatants. The same operation was done three times, and each sample was stored in a refrigerator (−20 °C) immediately for further analysis.
# The Pati method was adopted, with slight modifications, to measure the content of the PCs. The Agilent 1100 series HPLC instrument was used; it was equipped with a degasser, quaternary pump solvent delivery, a DAD system, and a single quadrupole mass detector coupled with an electrospray ionization LC–MS interface. Briefly, th samples were injected into a Zorbax SB C18 reversed-phase column (5 µm,150 × 2.1 mm, Agilent Technologies, Santa Clara, CA, USA) using an autosampler after filtering through 0.45 µm cellulose acetate syringe filters. The column temperature was kept at 30 °C, the injection volume was 10 µL, and the flow rate was 0.3 mL/min. The eluents were water and formic acid in a 99:1 (v/v) (A) ratio and 100% acetonitrile (B). […] The MS configuration was as follows: ESI, negative ion mode, nebulizer pressure of 30 psi, a dry gas flow rate of 10 mL/min, dry gas temperature of 350 °C, and a scan rate of 100~1200 m/z. PCs were determined according to their retention times, UV/VIS spectra, and high-resolution MS spectra, in addition to a comparison with the standards. […] Putative annotations were made using spectral features and literature information on the chromatographic properties and mass spectra records from the metabolome database. A standard curve was drawn using methanol solutions with different concentrations as the standards. The limits of detection and quantitation were calculated according to the signal-to-noise ratio (limit of detection: signal-to-noise ratio ≥ 3; limit of quantitation: signal-to-noise ratio ≥ 10). […] PCs All of the samples were determined in triplicate.
"PC Contents, Cabernet, After Digestion","PC Contents, Helanshan, After Digestion","PC Contents, Tianzhu, After Digestion",SMILES
1.05 ± 0.05 ^b mg/L,0.98 ± 0.05 ^b mg/L,1.17 ± 0.04 ^b mg/L,COc1cc(-c2[o+]c3cc(O)cc(O)c3cc2OC2OC(COC(C)=O)C(O)C(O)C2O)cc(O)c1O (centres unmarked) [Petunidin-3-acglc]
5.79 ± 0.27 ^b mg/L,4.98 ± 0.19 ^b mg/L,5.33 ± 0.21 ^b mg/L,COc1cc(-c2[o+]c3cc(O)cc(O)c3cc2O[C@@H]2O[C@H](CO)[C@@H](O)[C@H](O)[C@H]2O)cc(O)c1O [Petunidin-3-glc]
26.34 ± 0.90 ^b mg/L,20.17 ± 1.01 ^b mg/L,30.19 ± 1.03 ^b mg/L,COc1cc(-c2oc3cc(O)cc(O)c3c(=O)c2O[C@@H]2O[C@H](CO)[C@@H](O)[C@H](O)[C@H]2O)cc(OC)c1O [Syringetin-3-glc]
1.96 ± 0.08 ^b mg/L,2.97 ± 0.15 ^b mg/L,–,O=C(/C=C/c1ccc(O)cc1)O[C@@H](C(=O)O)[C@@H](O)C(=O)O [Coutaric acid]

# Same assay, conditions: Cabernet red wine, after simulated gastrointestinal digestion
row,"PC Contents, Cabernet, After Digestion",SMILES
1,28.22 ± 1.07 ^b mg/L,C[C@@H]1O[C@@H](O[C@H]2C(=O)c3c(O)cc(O)cc3O[C@@H]2c2ccc(O)c(O)c2)[C@H](O)[C@H](O)[C@H]1O [Astilbin]

# Same assay, conditions: Helanshan red wine, after simulated gastrointestinal digestion
row,"PC Contents, Helanshan, After Digestion",SMILES
1,24.63 ± 1.13 ^b mg/L,C[C@@H]1O[C@@H](O[C@H]2C(=O)c3c(O)cc(O)cc3O[C@@H]2c2ccc(O)c(O)c2)[C@H](O)[C@H](O)[C@H]1O [Astilbin]

# Same assay, conditions: Tianzhu red wine, after simulated gastrointestinal digestion
row,"PC Contents, Tianzhu, After Digestion",SMILES
1,25.36 ± 1.32 ^b mg/L,C[C@@H]1O[C@@H](O[C@H]2C(=O)c3c(O)cc(O)cc3O[C@@H]2c2ccc(O)c(O)c2)[C@H](O)[C@H](O)[C@H]1O [Astilbin]

# Test system: not listed separately
# Experiment: Caco-2 transepithelial transport assay of digested red wine
# Format: in vitro ADME, human
# Conditions: human, Caco-2, apical to basolateral, digested Cabernet red wine; read-out: Apparent Permeability Coefficients, Cabernet
# Experimental: (§1) Caco-2 cells were inoculated following the method of Hubatsch et al. […] Briefly, a 5% v/v of CO2 incubator at 37 °C was used to house the cells. […] Caco-2 cells were sub-cultured when they reached 80-90% of the adherent growth by treating them with a 0.05% v/v of trypsin-EDTA solution. The culture between passages 35 and 40 was used for the following experiment. Transport experiments were performed according to the method of Wu et al. with slight modifications. First, 1.0 × 10^5 Caco-2 cells were inoculated onto 12 mm transparent cell culture plates (Transwell). Media were carefully injected into the apical (0.5 mL) and basolateral (1.5 mL) sides of the Transwell plates. The cell culture medium had to be replaced every other day until the cells formed a monolayer. The integrity and transport ability of the Caco-2 cell monolayer were evaluated by measuring the trans-epithelial electrical resistance (TEER) with a MilliCell voltammeter (Millicell ERS-2, Merck Millipore, Billerica, MA, USA). […] When the cell activity exceeded 0.9, a transport experiment was conducted. The apical side was injected with a digested red wine sample (0.5 mL) and was thoroughly mixed with […] Balanced Salt Solution (HBSS) buffer solution. […] The cells were then cultured in a 37 °C, 5% CO2 incubator. Then, 0.25 mL samples were separately taken from the basolateral side of the monolayer. An equal volume of HBSS buffer was then added every half hour from the beginning of the culture until the end of the culture at 6 h. The collected samples were subsequently filtered and placed in the sample bottle for further HPLC analysis. This experiment was repeated several times to collect enough samples for the next antioxidant test. […] The Agilent 1100 series HPLC instrument was used; it was equipped with a degasser, quaternary pump solvent delivery, a DAD system, and a single quadrupole mass detector coupled with an electrospray ionization LC-MS interface. […] The column temperature was kept at 30 °C, the injection volume was 10 μL, and the flow rate was 0.3 mL/min. The eluents were water and formic acid in a 99:1 (v/v) (A) ratio and 100% acetonitrile (B). The gradient elution procedure was as follows: (1) 3% B solvent at 0 min, (2) 3 to 16% B solvent at 10 min, (3) 16 to 20% B solvent at 30 min, and (4) 20% B solvent maintained until the procedure was completed. The MS configuration was as follows: ESI, negative ion mode, nebulizer pressure of 30 psi, a dry gas flow rate of 10 mL/min, dry gas temperature of 350 °C, and a scan rate of 100~1200 m/z. PCs were determined according to their retention times, UV/VIS spectra, and high-resolution MS spectra, in addition to a comparison with the standards. […] If a standard was unavailable, a structurally related compound was used. Putative annotations were made using spectral features and literature information on the chromatographic properties and mass spectra records from the metabolome database. A standard curve was drawn using methanol solutions with different concentrations as the standards. […] PCs All of the samples were determined in triplicate.
row,Papp at 6 h,SMILES
1,2.46 ± 0.23 ×10⁻⁶ cm/s,C[C@@H]1O[C@@H](O[C@H]2C(=O)c3c(O)cc(O)cc3O[C@@H]2c2ccc(O)c(O)c2)[C@H](O)[C@H](O)[C@H]1O [Astilbin]

# Same assay, conditions: human, Caco-2, apical to basolateral, digested Helanshan red wine; read-out: Apparent Permeability Coefficients, Helanshan
row,Papp at 6 h,SMILES
1,2.37 ± 0.34 ×10⁻⁶ cm/s,C[C@@H]1O[C@@H](O[C@H]2C(=O)c3c(O)cc(O)cc3O[C@@H]2c2ccc(O)c(O)c2)[C@H](O)[C@H](O)[C@H]1O [Astilbin]

# Same assay, conditions: human, Caco-2, apical to basolateral, digested Tianzhu red wine; read-out: Apparent Permeability Coefficients, Tianzhu
row,Papp at 6 h,SMILES
1,2.41 ± 0.26 ×10⁻⁶ cm/s,C[C@@H]1O[C@@H](O[C@H]2C(=O)c3c(O)cc(O)cc3O[C@@H]2c2ccc(O)c(O)c2)[C@H](O)[C@H](O)[C@H]1O [Astilbin]

# Test system: Caco-2 cell monolayer
# Experiment: as above
# Format: in vitro ADME, human
# Conditions: Cabernet red wine, digested sample, basolateral side of Caco-2 monolayer
# Experimental: as §1
row,"PC Contents, Cabernet, Transmembrane",SMILES
1,1.11 ± 0.05 ^a mg/L,C[C@@H]1O[C@@H](O[C@H]2C(=O)c3c(O)cc(O)cc3O[C@@H]2c2ccc(O)c(O)c2)[C@H](O)[C@H](O)[C@H]1O [Astilbin]

# Same assay, conditions: Caco-2
"Apparent Permeability Coefficients, Cabernet","Apparent Permeability Coefficients, Helanshan","Apparent Permeability Coefficients, Tianzhu","PC Contents, Cabernet, Transmembrane","PC Contents, Helanshan, Transmembrane","PC Contents, Tianzhu, Transmembrane",SMILES
11.53 ± 2.01 ^a ×10^−6 cm/s,11.78 ± 2.11 ^a ×10^−6 cm/s,11.46 ± 2.05 ^a ×10^−6 cm/s,0.19 ± 0.008 ^a mg/L,0.18 ± 0.005 ^a mg/L,0.23 ± 0.008 ^a mg/L,COc1cc(-c2[o+]c3cc(O)cc(O)c3cc2OC2OC(COC(C)=O)C(O)C(O)C2O)cc(O)c1O (centres unmarked) [Petunidin-3-acglc]
16.89 ± 2.96 ^a ×10^−6 cm/s,17.56 ± 3.32 ^a ×10^−6 cm/s,17.13 ± 3.01 ^a ×10^−6 cm/s,1.56 ± 0.07 ^a mg/L,1.40 ± 0.05 ^a mg/L,1.06 ± 0.04 ^a mg/L,COc1cc(-c2[o+]c3cc(O)cc(O)c3cc2O[C@@H]2O[C@H](CO)[C@@H](O)[C@H](O)[C@H]2O)cc(O)c1O [Petunidin-3-glc]
2.91 ± 0.21 ^a ×10^−6 cm/s,2.81 ± 0.29 ^a ×10^−6 cm/s,2.88 ± 0.23 ^a ×10^−6 cm/s,1.23 ± 0.04 ^a mg/L,0.91 ± 0.03 ^a mg/L,6.01 ± 0.22 ^a mg/L,COc1cc(-c2oc3cc(O)cc(O)c3c(=O)c2O[C@@H]2O[C@H](CO)[C@@H](O)[C@H](O)[C@H]2O)cc(OC)c1O [Syringetin-3-glc]
12.13 ± 1.19 ^a ×10^−6 cm/s,12.91 ± 1.32 ^a ×10^−6 cm/s,12.46 ± 1.42 ^a ×10^−6 cm/s,0.38 ± 0.02 ^a mg/L,0.61 ± 0.03 ^a mg/L,0.64 ± 0.03 ^a mg/L,O=C(/C=C/c1ccc(O)cc1)O[C@@H](C(=O)O)[C@@H](O)C(=O)O [Coutaric acid]

# Same assay, conditions: Helanshan red wine, digested sample, basolateral side of Caco-2 monolayer
row,"PC Contents, Helanshan, Transmembrane",SMILES
1,0.93 ± 0.04 ^a mg/L,C[C@@H]1O[C@@H](O[C@H]2C(=O)c3c(O)cc(O)cc3O[C@@H]2c2ccc(O)c(O)c2)[C@H](O)[C@H](O)[C@H]1O [Astilbin]

# Same assay, conditions: Tianzhu red wine, digested sample, basolateral side of Caco-2 monolayer
row,"PC Contents, Tianzhu, Transmembrane",SMILES
1,5.05 ± 0.19 ^a mg/L,C[C@@H]1O[C@@H](O[C@H]2C(=O)c3c(O)cc(O)cc3O[C@@H]2c2ccc(O)c(O)c2)[C@H](O)[C@H](O)[C@H]1O [Astilbin]
